Reference: patent US20210290765A1, “SURFACTANTS FOR HEALTHCARE PRODUCTS” (AdvanSix Resins & Chemicals LLC, priority 2020, published 2021)

Legend:
Format in all cases: physicochemical
[1] = Wetting properties: contact angle on solid substrates, optical contact angle goniometer; conditions: 10x CMC
Source text: Surface-active compounds may also be assessed by their wetting ability on solid substrates as measured by the contact angle. When a liquid droplet comes in contact with a solid surface in a third medium, such as air, a three-phase line forms among the liquid, the gas and the solid. The angle between the surface tension unit vector, acting at the three-phase line and tangent at the liquid droplet, and the surface is described as the contact angle. The contact angle (also known as wetting angle) is a measure of the wettability of a solid by a liquid. In the case of complete wetting, the liquid is completely spread over the solid and the contact angle is 0°. Wetting properties are typically measured for a given compound at the concentration of 1-100×CMC, however, it is not a property that is concentration-dependent therefore measurements of wetting properties can be measured at concentrations that are higher or lower.
In one method, an optical contact angle goniometer may be used to measure the contact angle. This device uses a digital camera and software to extract the contact angle by analyze the contour shape of a sessile droplet of liquid on a surface.
(§1) Nuclear magnetic resonance (NMR) spectroscopy was performed on a Bruker 500 MHz spectrometer. The critical micelle concentration (CMC) was determined by the Wilhelmy plate method at 23° C. with a tensiometer (DCAT 11, DataPhysics Instruments GmbH) equipped with a Pt—Ir plate. Dynamic surface tension was determined with a bubble pressure tensiometer (Krüss BP100, Krüss GmbH), at 23° C. Contact angle was determined with the optical contact angle goniometer (OCA 15 Pro, DataPhysics GmbH) equipped with a digital camera.

[2] = Critical micelle concentration (CMC) and surface tension versus concentration in water, Wilhelmy plate method; conditions: for plateau value of minimum surface tension that can be reached / surface tension at the CMC (from the plot) / critical micelle concentration (CMC): 23° C.; for plateau value of minimum surface tension that can be reached / surface tension at the CMC (from the plot): pH=7; for critical micelle concentration (CMC): pH=7, Wilhelmy plate
Source text: These properties may be measured and described by various methods. One method by which surfactants may be described is by the molecule's critical micelle concentration (CMC). CMC may be defined as the concentration of a surfactant at which micelles form, and above which all additional surfactant is incorporated into micelles.
As surfactant concentration increases, surface tension decreases. Once the surface is completely overlaid with surfactant molecules, micelles begin to form. This point represents the CMC, as well as the minimum surface tension. Further addition of surfactant will not further affect the surface tension. CMC may therefore be measured by observing the change in surface tension as a function of surfactant concentration. One such method for measuring this value is the Wilhemy plate method. A Wilhelmy plate is usually a thin iridium-platinum plate attached to a balance by a wire and placed perpendicularly to the air-liquid interface. The balance is used to measure the force exerted on the plate by wetting. This value is then used to calculate the surface tension (γ) according to Equation 1: […]
wherein I is equal to the wetted perimeter (2w+2d, in which w and d are the plate thickness and width, respectively) and cos θ, the contact angle between the liquid and the plate, is assumed to be 0 in the absence of an extant literature value.
as §1

[3] = Dynamic surface tension, bubble pressure tensiometer
Source text: Another parameter used to assess the performance of surfactants is dynamic surface tension. The dynamic surface tension is the value of the surface tension for a particular surface or interface age. In the case of liquids with added surfactants, this can differ from the equilibrium value. Immediately after a surface is produced, the surface tension is equal to that of the pure liquid. As described above, surfactants reduce surface tension; therefore, the surface tension drops until an equilibrium value is reached. The time required for equilibrium to be reached depends on the diffusion rate and the adsorption rate of the surfactant.
One method by which dynamic surface tension is measured relies upon a bubble pressure tensiometer. This device measures the maximum internal pressure of a gas bubble that is formed in a liquid by means of a capillary. The measured value corresponds to the surface tension at a certain surface age, the time from the start of the bubble formation to the occurrence of the pressure maximum. The dependence of surface tension on surface age can be measured by varying the speed at which bubbles are produced.
as §1

[4] = substrate Polyethylene terephthalate
[5] = surface age 1 ms, air-water interface, 23° C.

| SMILES | CA of Surfactant (contact angle) ([1]; substrate Nylon) | CA of Surfactant (contact angle) [1, 4] | CA of Surfactant (contact angle) ([1]; substrate Polyethylene-HD) | CA of Surfactant (contact angle) ([1]; substrate Teflon) | plateau value of minimum surface tension that can be reached [2] | surface tension at the CMC (from the plot) [2] | critical micelle concentration (CMC) [2] | time in which the compound fully saturated the surface ([3]; air-water interface, 23° C.) | dynamic surface tension [3, 5] | further results |
| --- | --- | --- | --- | --- | --- | --- | --- | --- | --- | --- |
| CCCCCCCCCCCCOC(=O)CCCCC[N+](C)(C)[O-] [Surfactant 2, dodecyl 6-(dimethylamino)hexanoate N-oxide] | 21.7 ° | 24.5 ° | 39.3 ° | 57.4 ° | about 28 mN/m | ≤ 30 mN/m | about 0.08 mmol | approximately 7.6 seconds |  | surface tension ([2]; at a concentration of 0.08 mmol or greater): ≤ 30 mN/m; dynamic surface tension ([3]; surface age of 4900 ms or greater): ≤ 40 mN/m |
| CCCCCCCCCCCCOC(=O)CCCCC[N+](C)(C)CCCCS(=O)(=O)[O-] [Surfactant 4, 4-((6-(dodecyloxy)-6-oxohexyl)dimethylammonio)butane-1-sulfonate] | 25.7 ° | 35.6 ° | 46.5 ° | 62.7 ° | about 38 mN/m | about 38 mN/m | about 0.1 mmol | approximately 1 seconds |  | surface tension ([2]; at a concentration of 1 mmol or greater): ≤ 37 mN/m; dynamic surface tension ([3]; surface age of 4000 ms or greater): ≤ 40.5 mN/m |

Second part, led by results:

| CA of Surfactant (contact angle) ([1]; substrate Nylon) | CA of Surfactant (contact angle) [1, 4] | CA of Surfactant (contact angle) ([1]; substrate Polyethylene-HD) | CA of Surfactant (contact angle) ([1]; substrate Teflon) | plateau value of minimum surface tension that can be reached [2] | surface tension at the CMC (from the plot) [2] | critical micelle concentration (CMC) [2] | time in which the compound fully saturated the surface ([3]; air-water interface, 23° C.) | dynamic surface tension [3, 5] | SMILES | further results |
| --- | --- | --- | --- | --- | --- | --- | --- | --- | --- | --- |
| 18.2 ° | 15.3 ° | 16.6 ° | 39.3 ° | about 23 mN/m | about 23 mN/m | about 0.75 mmol | approximately 1.5 seconds |  | CCCCCCCCCCCCOC(=O)CCCCCN.Cl [Surfactant 5, 6-(dodecyloxy)-6-oxohexan-1-aminium chloride] | surface tension ([2]; at a concentration of 0.7 mmol or greater): ≤ 23.2 mN/m; dynamic surface tension ([3]; surface age of 3185 ms or greater): ≤ 28.5 mN/m |
| 15 ° | 18.3 ° | 42.5 ° | 66.6 ° | about 30 mN/m | ≤ 30 mN/m | about 1.4 mmol |  | about 50 mN/m | CCCCCCCCCCCCOC(=O)CCCCCN(C)C.Cl [Surfactant 3, 6-(dodecyloxy)-N,N-dimethyl-6-oxohexan-1-aminium chloride] | surface tension ([2]; at a concentration of 2.7 mmol or greater): ≤ 33 mN/m; dynamic surface tension ([3]; surface age 100 ms, air-water interface, 23° C.): about 40 mN/m; dynamic surface tension ([3]; surface age 50,000 ms, air-water interface, 23° C.): about 34 mN/m |
| 31.5 ° | 38.4 ° | 32 ° | 67.1 ° | about 33 mN/m | about 34 mN/m | about 1 mmol |  | about 55.5 mN/m | CCCCCCCCCCCCOC(=O)CCCCC[N+](C)(C)C.[I-] [Surfactant 1, 6-(dodecyloxy)-N,N,N-trimethyl-6-oxohexan-1-aminium iodide] | surface tension ([2]; at a concentration of 1.0 mmol or greater): about 33.8 mN/m; dynamic surface tension ([3]; surface age 75 ms, air-water interface, 23° C.): about 39.9 mN/m; dynamic surface tension ([3]; surface age 50,410 ms, air-water interface, 23° C.): about 34 mN/m |
